From patent publication US12527849B2, “Apparatus for determining administration form of a composition of an engineered virus-based nanoparticle for a treatment of an autoimmune condition” (Diamante Srl, priority 2021, dated 2026)

Tested on: IFN-γ
Assay: Cytokine ELISA in CIA mice, day 60: IFN-γ
Assay type: in vivo
Excerpt: With continued reference to FIG. 1, in some embodiments, administration 116 may be done to an animal. As a non-limiting example, the animal may include a mouse, a fish, a rabbit, human, and the like. As a non-limiting example, administration 116 of composition of the engineered virus-based nanoparticle for a treatment of an autoimmune condition may be done to dilute, brown, and non-agouti (DBA) mice based on their susceptibility to collagen-induced arthritis (CIA). Female DBA/1 mice 6 to 8 weeks of age may be maintained under specific pathogen-free conditions. CIA may be induced by the intradermal tail base injection of 100 μg of chicken type II collagen (Sigma-Aldrich) as previously described. Five mice per group may be immunized on days 0 and 21 to induce arthritis. The onset of disease may be confirmed on the day that swelling or erythema may be observed in any paw, typically 4 to 10 days after the second immunization. […] CIA may be assessed using a macroscopic score system based on the visual identification of arthritic limbs. The clinical severity of arthritis may be evaluated as follows: Each mouse may be inspected every 2 to 3 days for three different parameters: (i) swelling of the hind ankle and foot, measured with calipers; (ii) erythema of each leg; and (iii) swelling of the fingers. The RA index for each mouse was expressed as the mean of the three scores from the individual parameters. At the end of the experiment (60 days), we determined the proportion of CD25+Foxp3+ cells in the lymph nodes and measured cytokine titers in the lymph nodes, joints, and serum.
With continued reference to FIG. 1, in some embodiments, processor 104 may determine critical administration 124 as a function of a cytokine profile and a proportion of CD25^+ Foxp3^+ cells. […] In some embodiments, to quantify cytokines in DBA mice, joint tissues may be pulverized and resuspended in 1 ml of lysis medium per 100-mg joint weight for 60 min at 37′C, followed by centrifugation to remove debris. […]

C[C@@H]1C[C@H]2[C@@H]3CCC4=CC(=O)C=C[C@]4(C)[C@@]3(F)[C@@H](O)C[C@]2(C)[C@@]1(O)C(=O)CO [Dexamethasone, dexamethasone]
IFN-γ J (joint supernatant, CIA mice, day 60, mean n=3): 187.23 pg/mL
IFN-γ LN (lymph node supernatant, CIA mice, day 60, mean n=3): 210.86 pg/mL
IFN-γ S (serum pooled from five CIA mice, day 60): 75.6 pg/mL
